In patent US20060058374A1, “Urotensin II receptor agents” (priority 2002, published 2006):

Experiments:
Assay type in all cases: cell-based
Acetylcholine m5 = target: T1, Acetylcholine m5 (Homo sapiens, UniProt P08912); test: R-SAT assay, Acetylcholine m5
T1 construct: expressed in transfected cells; host or cells: NIH3T3
T1 sequence (P08912 1-532): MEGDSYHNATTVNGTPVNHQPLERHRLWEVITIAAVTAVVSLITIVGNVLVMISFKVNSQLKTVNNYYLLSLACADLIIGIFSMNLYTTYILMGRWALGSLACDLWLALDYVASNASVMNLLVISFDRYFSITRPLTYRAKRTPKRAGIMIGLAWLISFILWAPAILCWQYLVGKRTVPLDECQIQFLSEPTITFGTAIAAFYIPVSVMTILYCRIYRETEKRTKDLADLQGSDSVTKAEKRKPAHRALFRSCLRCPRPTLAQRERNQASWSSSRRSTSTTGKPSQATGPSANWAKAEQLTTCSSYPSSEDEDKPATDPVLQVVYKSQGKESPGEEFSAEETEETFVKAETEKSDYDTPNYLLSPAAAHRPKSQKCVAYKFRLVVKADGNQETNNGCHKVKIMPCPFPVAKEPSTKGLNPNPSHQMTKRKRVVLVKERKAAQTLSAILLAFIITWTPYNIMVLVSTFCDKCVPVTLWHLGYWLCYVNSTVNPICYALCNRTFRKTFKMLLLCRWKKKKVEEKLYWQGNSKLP
Protocol: (§1) The test compound of Formula III was screened according to a modification of the method described in U.S. Pat. No. 5,912,312. The method, herein referred to as Method 1, consists of the following:
(§2) Receptor Selection and Amplification (R-SAT) Assays.
(§3) R-SAT assays were performed with minor modifications from that previously described (6). Briefly, NIH3T3 cells were grown in tissue culture treated rollerbottles to 40-50% confluence. Cells were transfected for 12-16 hours with plasmid DNAs using superfect (Qiagen Inc.) as per manufacture's protocols. R-SAT's were generally performed with 10 μg/rollerbottle of receptor and 50 μg/rollerbottle of Beta-galactosidase plasmid DNA. All receptor and G-protein constructs used were in the PSI mammalian expression vector (Promega Inc.). The transfected cells were then trypsinized and frozen in DMEM containing 10% DMSO. Frozen cells were later thawed, plated at 10,000-40,000 cells per well of a 96 ½ area plate that contained drug. Cells were then grown in a humidified atmosphere with 5% ambient CO2 for five days. Media was then removed from the plates and marker gene activity was measured by the addition of the beta-galactosidase substrate ONPG (in PBS with 5% NP-40). The resulting colorimetric reaction was measured in a spectrophotometric plate reader (Titertek Inc.) at […].
(§4) EC50, IC50 and Ki are presented as the negative of the calculated potency in Molar.

Serotonin 5HT6 = target: T2, Serotonin 5HT6 (Homo sapiens, UniProt P50406); test: R-SAT assay, Serotonin 5HT6; conditions: percent maximal activation relative to control compound
T2 construct: expressed in transfected cells; host or cells: NIH3T3
T2 sequence (P50406 whole entry): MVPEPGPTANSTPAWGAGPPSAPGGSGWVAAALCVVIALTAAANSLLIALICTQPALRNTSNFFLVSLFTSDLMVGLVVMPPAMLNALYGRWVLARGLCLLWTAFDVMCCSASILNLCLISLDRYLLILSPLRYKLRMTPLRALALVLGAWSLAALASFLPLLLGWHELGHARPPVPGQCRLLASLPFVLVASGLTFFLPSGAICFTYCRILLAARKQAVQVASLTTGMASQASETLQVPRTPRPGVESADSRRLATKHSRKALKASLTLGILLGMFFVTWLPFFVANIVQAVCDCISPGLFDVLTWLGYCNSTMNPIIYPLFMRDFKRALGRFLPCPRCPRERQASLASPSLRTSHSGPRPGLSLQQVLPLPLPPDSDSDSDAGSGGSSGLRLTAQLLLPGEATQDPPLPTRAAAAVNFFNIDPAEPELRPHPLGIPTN
Protocol: as §1, §2
as §3, with “Cells were then grown in a humidified atmosphere with 5% ambient CO2 for five days.” left out
as §4

Serotonin 5HT2a = target: T3, Serotonin 5HT2a (Homo sapiens, UniProt P28223); test: R-SAT assay, Serotonin 5HT2a
T3 construct: expressed in transfected cells; host or cells: NIH3T3
T3 sequence (P28223 whole entry): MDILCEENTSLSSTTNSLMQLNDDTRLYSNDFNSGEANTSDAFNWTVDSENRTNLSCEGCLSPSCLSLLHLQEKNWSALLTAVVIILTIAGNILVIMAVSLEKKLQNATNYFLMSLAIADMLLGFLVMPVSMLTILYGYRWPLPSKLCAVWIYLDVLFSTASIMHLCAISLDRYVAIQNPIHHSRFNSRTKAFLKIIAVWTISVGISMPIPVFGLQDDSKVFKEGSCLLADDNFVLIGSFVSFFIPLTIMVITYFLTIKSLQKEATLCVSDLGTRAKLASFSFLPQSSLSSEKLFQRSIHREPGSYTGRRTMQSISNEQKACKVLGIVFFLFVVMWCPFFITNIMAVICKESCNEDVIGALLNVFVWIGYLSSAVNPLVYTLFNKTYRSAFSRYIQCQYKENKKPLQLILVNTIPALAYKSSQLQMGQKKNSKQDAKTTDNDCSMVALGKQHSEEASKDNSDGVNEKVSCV
Protocol: as §1, §2
as §3, with “Cells were then grown in a humidified atmosphere with 5% ambient CO2 for five days.” left out
as §4

Beta Adrenergic 1 = target: T4, Beta Adrenergic 1 (Homo sapiens, UniProt P08588); test: R-SAT assay, Beta Adrenergic 1; conditions: percent maximal activation relative to control compound
T4 construct: expressed in transfected cells; host or cells: NIH3T3
T4 sequence (P08588 whole entry): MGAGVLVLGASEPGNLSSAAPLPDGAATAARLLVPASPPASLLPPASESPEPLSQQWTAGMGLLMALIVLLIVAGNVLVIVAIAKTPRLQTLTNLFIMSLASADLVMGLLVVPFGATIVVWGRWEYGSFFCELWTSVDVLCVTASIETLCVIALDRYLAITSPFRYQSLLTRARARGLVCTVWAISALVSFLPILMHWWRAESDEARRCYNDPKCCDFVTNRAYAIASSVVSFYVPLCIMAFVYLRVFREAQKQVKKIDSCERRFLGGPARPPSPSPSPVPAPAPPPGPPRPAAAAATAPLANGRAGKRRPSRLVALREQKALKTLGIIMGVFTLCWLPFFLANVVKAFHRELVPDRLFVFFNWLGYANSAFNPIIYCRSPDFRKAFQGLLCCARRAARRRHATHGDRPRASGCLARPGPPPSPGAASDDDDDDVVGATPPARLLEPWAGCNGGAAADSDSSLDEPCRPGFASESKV
Protocol: as §1, §2
as §3, with “Cells were then grown in a humidified atmosphere with 5% ambient CO2 for five days.” left out
as §4

Dopamine D5 = target: T5, Dopamine D5 (Homo sapiens, UniProt P21918); test: R-SAT assay, Dopamine D5
T5 construct: expressed in transfected cells; host or cells: NIH3T3
T5 sequence (P21918 whole entry): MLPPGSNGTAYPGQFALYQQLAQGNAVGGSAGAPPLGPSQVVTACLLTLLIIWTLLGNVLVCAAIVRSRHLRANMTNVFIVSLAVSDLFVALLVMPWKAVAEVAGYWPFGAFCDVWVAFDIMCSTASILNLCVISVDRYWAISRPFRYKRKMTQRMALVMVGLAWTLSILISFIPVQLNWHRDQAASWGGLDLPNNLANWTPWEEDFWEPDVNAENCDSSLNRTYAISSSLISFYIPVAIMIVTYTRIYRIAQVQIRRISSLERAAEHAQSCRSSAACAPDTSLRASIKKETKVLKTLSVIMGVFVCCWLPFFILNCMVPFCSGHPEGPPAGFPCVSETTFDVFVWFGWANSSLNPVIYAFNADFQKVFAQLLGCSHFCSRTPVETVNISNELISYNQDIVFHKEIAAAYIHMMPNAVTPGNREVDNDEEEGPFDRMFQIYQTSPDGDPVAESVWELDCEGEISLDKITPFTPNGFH
Protocol: as §1, §2
as §3, with “Cells were then grown in a humidified atmosphere with 5% ambient CO2 for five days.” left out
as §4

Serotonin 5HT-1E = target: T6, Serotonin 5HT-1E (Homo sapiens, UniProt P28566); test: R-SAT assay, Serotonin 5HT-1E; conditions: percent maximal activation relative to control compound
T6 construct: expressed in transfected cells; host or cells: NIH3T3
T6 sequence (P28566 whole entry): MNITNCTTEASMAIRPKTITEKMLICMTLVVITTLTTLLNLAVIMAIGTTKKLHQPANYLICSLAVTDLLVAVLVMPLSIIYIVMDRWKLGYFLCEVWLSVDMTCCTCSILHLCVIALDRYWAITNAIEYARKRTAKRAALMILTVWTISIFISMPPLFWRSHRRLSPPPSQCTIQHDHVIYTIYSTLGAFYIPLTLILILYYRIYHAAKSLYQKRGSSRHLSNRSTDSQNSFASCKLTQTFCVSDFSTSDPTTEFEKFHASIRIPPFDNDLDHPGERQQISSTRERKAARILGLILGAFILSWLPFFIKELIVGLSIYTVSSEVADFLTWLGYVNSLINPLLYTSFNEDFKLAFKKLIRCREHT
Protocol: as §1, §2
as §3, with “Cells were then grown in a humidified atmosphere with 5% ambient CO2 for five days.” left out
as §4

[1] = competitive antagonist mode, percent maximal inhibition relative to control standard compound
[2] = percent maximal activation relative to control compound

Compound: CN(C)CCC1(c2ccc(Cl)cc2)Cc2ccccc2C(=O)O1 (stereo not shown) [Formula III]
- Ki (Acetylcholine m5; competitive antagonist mode, negative of the calculated potency in Molar): > 2240 nM
- Competitive Antagonist % Inh (Acetylcholine m5; [1]): 55%
- Agonist % Eff (Acetylcholine m5; [2]): 3.6%
- Agonist % Eff (Serotonin 5HT6): 0%
- Inverse Agonist % Inh (Serotonin 5HT2a; inverse agonist mode, percent maximal inhibition relative to repression of basal activity by a control standard compound): 11.9%
- Agonist % Eff (Serotonin 5HT2a; [2]): 58%
- Agonist % Eff (Beta Adrenergic 1): 0%
- Competitive Antagonist % Inh (Dopamine D5; [1]): 0%
- Agonist % Eff (Dopamine D5; [2]): 0%
- Agonist % Eff (Serotonin 5HT-1E): 19%
